Reference: US20240197725A1, “METHOD AND COMPOSITION FOR THE PREVENTION OR TREATMENT OF OSTEOARTHRITIS” (Rhode Island Hospital, priority 2021, published 2024)
Like-named read-outs stand apart in the source and are kept apart here.

Tests used:
[1] = molecular target: T1, SHP2 (Homo sapiens, UniProt Q06124); details: read-out: SHP2 IC50; cited from earlier work
[2] = molecular target: T1, SHP2; parameters: host or cells: esophageal cancer cells (endogenous SHP2); details: cited from earlier work
[3] = molecular target: T2, SHP2 (Mus musculus, UniProt P35235); assay: SHP2 degradation in Prg4+ articular cartilage cells (Western blot); format: cell-based, murine; details: chondrocytes, a week after withdrawal
T2 construct: endogenous in cells; host or cells: Prg4+ murine articular cartilage (AC) cells

[4] = tested on: murine articular cartilage cells; assay: Cell viability (WST1) of articular cartilage cells; format: cell-based; details: concentrations as high as 1 μM, 48 hrs, WST1, n=3
Procedure: With respect to toxicity, murine articular cartilage cells were treated with indicated concentration of SHP2D26 for 48 hrs. Cell viabilities were measured using WST1 (n=3).

T1 sequence (Q06124 whole entry): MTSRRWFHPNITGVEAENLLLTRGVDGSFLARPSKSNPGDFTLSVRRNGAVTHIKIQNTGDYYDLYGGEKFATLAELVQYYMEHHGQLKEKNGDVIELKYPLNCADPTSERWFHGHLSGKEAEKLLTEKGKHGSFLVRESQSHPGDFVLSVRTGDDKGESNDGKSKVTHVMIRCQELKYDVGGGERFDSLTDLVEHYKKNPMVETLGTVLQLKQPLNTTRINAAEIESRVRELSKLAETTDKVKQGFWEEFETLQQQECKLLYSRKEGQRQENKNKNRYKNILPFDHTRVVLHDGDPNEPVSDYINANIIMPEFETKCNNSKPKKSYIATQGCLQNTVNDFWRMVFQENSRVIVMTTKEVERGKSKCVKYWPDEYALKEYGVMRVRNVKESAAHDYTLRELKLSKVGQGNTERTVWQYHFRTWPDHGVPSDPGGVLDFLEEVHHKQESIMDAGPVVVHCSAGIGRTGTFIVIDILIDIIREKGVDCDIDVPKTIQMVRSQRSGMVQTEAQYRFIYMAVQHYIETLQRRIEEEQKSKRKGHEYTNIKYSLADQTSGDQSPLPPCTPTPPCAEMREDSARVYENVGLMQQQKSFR
T2 sequence (P35235 whole entry): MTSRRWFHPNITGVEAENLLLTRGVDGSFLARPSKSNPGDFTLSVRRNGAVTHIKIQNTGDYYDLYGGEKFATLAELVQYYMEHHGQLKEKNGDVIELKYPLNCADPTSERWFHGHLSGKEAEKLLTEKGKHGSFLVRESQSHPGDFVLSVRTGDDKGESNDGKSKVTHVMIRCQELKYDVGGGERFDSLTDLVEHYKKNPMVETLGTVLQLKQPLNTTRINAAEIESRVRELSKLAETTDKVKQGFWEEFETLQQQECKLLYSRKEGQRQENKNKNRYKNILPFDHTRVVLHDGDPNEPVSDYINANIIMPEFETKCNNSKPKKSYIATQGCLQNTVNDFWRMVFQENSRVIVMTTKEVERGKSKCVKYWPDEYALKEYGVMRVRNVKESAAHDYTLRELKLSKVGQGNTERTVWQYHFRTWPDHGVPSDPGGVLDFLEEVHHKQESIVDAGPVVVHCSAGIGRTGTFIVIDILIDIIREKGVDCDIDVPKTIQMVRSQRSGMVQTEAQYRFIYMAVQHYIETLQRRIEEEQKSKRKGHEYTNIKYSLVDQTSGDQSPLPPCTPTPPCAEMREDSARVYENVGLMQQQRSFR

O=C1/C(=N\Nc2ccc(S(=O)(=O)O)cc2)C(c2ccc([N+](=O)[O-])cc2)=NN1c1ccc([N+](=O)[O-])cc1 [GS-493, 4-((2 Z)-2-(1,3-bis (4-Nitrophenyl)-5-oxo-1,5-dihydro-4H-pyrazol-4-yliden)hydrazino) benzenesulfonic acid, (Z)-4-(2-(1,3-bis(4-Nitrophenyl)-5-oxo-1H-pyrazol-4(5H)-ylidene)hydrazinyl)benzenesulfonic acid]
IC50 [1]: 71000 nM

O=c1c2ccccc2n2c(-c3ccccc3O)nnc2n1Cc1ccccc1Cl [SHP357]
IC50 [1]: > 100000 nM

Cc1ncsc1-c1ccc([C@H](C)NC(=O)[C@@H]2C[C@@H](O)CN2C(=O)[C@@H](NC(=O)CCCCCCCCN2CCN(C(=O)CCC(=O)Nc3cccc(Sc4ncc(N5CCC(C)(N)CC5)nc4N)c3Cl)CC2)C(C)(C)C)cc1 [SHP-D26, (2S,4R)-1-((S)-2-(9-(4-(4-((3-((3-amino-5-(4-amino-4-methylpiperidin-1-yl)pyrazin-2-yl)thio)-2-chlorophenyl)amino)-4-oxobutanoyl)piperazin-1-yl)nonanamido)-3,3-dimethylbutanoyl)-4-hydroxy-N-((S)-1-(4-(4-methylthiazol-5-yl)phenyl)ethyl)pyrrolidine-2-carboxamide]
DC50 ([2]; acute myeloid leukemia MV4, 11 cells, read-out: DC50): 2.6 nM | DC50 ([2]; esophageal cancer KYSE520 cells, read-out: DC50): 6 nM | DC50 ([2]; range over the cancer cell lines, read-out: SHP2 DC50): 2.6 to 6 nM | SHP2 recovered after complete withdrawal of compound from culture medium [3]: about 50% | cell viability [4]: did not compromise cell viability

C[C@@H]1OCC2(CCN(c3nc4[nH]nc(-c5ccnc(NC6CC6)c5Cl)c4c(=O)n3C)CC2)[C@@H]1N [SHP389, 6-((3S,4S)-4-Amino-3-methyl-2-oxa-8-azaspiro[4.5]decan-8-yl)-3-(3-chloro-2-(cyclopropylamino)pyridin-4-yl)-5-methyl-2,5-dihydro-4H-pyrazolo[3,4-d]pyrimidin-4-one]
IC50 [1]: 36000 nM
